This is an account of results in US10189809B2, “SGC stimulators” (Ironwood Pharmaceuticals, Inc., priority 2010, dated 2019).

Assay [1] addresses T1, Human soluble guanylate cyclase enzyme (hsGC) (Homo sapiens (Human), UniProt Q02108+Q02153). Nature of the assay: Purified human sGC enzyme activity assay. It counts as biochemical. As to conditions: 30 μM compound, without the addition of SNP. The gist of the method: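 Purified human sGC (5 ng) incubated 30 min at 37° C with compound at 10 or 30 μM final in pH 8.0 Tris with 300 μM GTP, 2 mM MgCl2, 2 mM DTT and 1 mM IBMX, then stopped with cold methanol. cGMP quantified against a standard curve. Specific activity (nmol cGMP/mg sGC/min) expressed as fold-change over DMSO control.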

For assay [2], the target named is T2, soluble guanylate cyclase (sGC) (Homo sapiens (Human), UniProt Q02108+Q02153). Nature of the assay: sGC-HEK-cGMP assay run in the absence of SNP (HEK WC assay). The format is cell-based. As to conditions: compound at 30 μM, absence of SNP. A digest of the protocol:
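HEK293 cells with endogenous sGC, preincubated 15 min at 37° C with 0.5 mM IBMX, then exposed to test compound 10 min at 37° C without SNP. Cells lysed in 0.1 M HCl; cGMP quantified by LC/MS against a standard curve. EC50 from concentration-response curves.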

Assay [3] addresses T2, soluble guanylate cyclase (sGC). Nature of the assay: sGC-HEK-cGMP assay run with SNP incubation (HEK WC assay). The format is cell-based. As to conditions: for HEK WC Assay (fold increase at 30 μM in the presence of 10 μM SNP): compound at 30 μM; for Emax at 10 µM: read-out: HEK WC Assay (% Emax at 10 μM/with 10 uM SNP); for Emax at 30 µM: read-out: HEK WC Assay (% Emax at 30 μM/with 10 uM SNP); for EC50: in the presence of 10 uM SNP. A digest of the protocol:
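HEK293 cells with endogenous sGC were pretreated with 0.5 mM IBMX for 15 min at 37 °C, then exposed to test compound plus sodium nitroprusside for 10 min at 37 °C.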

In assay [4] the target is T1, Human soluble guanylate cyclase enzyme (hsGC). Nature of the assay: Purified human sGC enzyme synergy assay in the presence of 1 μM sodium nitroprusside (SNP). It counts as biochemical. As to conditions: 30 μM compound, with the addition of SNP. A digest of the protocol: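 Purified human sGC (5 ng) incubated 30 min at 37 °C with compounds at 10 or 30 μM, 1 μM sodium nitroprusside, 300 μM GTP and 1 mM IBMX in Tris pH 8.0 with MgCl2/DTT. cGMP quantified against a standard curve, and specific activity expressed as fold-change over DMSO control.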

A further assay has as its system Thoracic aortic rings. Nature of the assay: Alternative thoracic aortic rings assay (Example 19b; resting tension as 100% inhibition). The settings on record: for inhibition at 1 µM: read-out: Percent Relaxation at 1 μM; for inhibition at 3 µM: read-out: Percent Relaxation at 3 μM; for EC50: read-out: Aortic Ring EC50. Also noted: species or system rat. A digest of the protocol: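 Aortic rings (~2 mm) from male Sprague-Dawley rats (275-299 g) held at 1.0 g resting tension in Krebs-Henseleit at 37 °C under 95% O2/5% CO2, then precontracted with 100 ng/mL phenylephrine. Compounds in DMSO added cumulatively; relaxation recorded by force transducer and EC50 taken from concentration-response curves.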

Where [5] appears, read: read-out: HEK WC Assay (% Emax at 10 μM with 10 uM SNP).
[6] abbreviates: read-out: HEK WC Assay (% Emax at 30 μM with 10 uM SNP).
Where [7] appears, read: read-out: HEK WC Assay in the presence of 10 uM SNP EC50.

Where two headings read alike, the source gives them in different places.

T1 sequence (Q02153 whole entry): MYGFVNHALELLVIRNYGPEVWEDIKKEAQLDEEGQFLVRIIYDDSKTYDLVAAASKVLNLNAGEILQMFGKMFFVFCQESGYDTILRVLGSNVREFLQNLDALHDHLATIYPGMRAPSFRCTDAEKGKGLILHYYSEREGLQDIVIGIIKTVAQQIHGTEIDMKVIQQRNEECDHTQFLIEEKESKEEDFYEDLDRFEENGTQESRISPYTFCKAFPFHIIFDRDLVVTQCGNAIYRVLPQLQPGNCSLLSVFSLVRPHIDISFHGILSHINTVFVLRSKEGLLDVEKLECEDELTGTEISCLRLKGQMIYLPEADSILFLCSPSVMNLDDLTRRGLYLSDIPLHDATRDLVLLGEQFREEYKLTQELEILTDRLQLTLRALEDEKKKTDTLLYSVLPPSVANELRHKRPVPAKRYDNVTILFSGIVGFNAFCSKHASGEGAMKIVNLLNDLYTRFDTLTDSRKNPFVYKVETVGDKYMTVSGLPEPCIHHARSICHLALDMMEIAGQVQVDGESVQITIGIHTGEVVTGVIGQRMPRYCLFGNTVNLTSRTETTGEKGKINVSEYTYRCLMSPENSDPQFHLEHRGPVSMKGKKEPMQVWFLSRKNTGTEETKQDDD
T1 sequence (Q02108 whole entry): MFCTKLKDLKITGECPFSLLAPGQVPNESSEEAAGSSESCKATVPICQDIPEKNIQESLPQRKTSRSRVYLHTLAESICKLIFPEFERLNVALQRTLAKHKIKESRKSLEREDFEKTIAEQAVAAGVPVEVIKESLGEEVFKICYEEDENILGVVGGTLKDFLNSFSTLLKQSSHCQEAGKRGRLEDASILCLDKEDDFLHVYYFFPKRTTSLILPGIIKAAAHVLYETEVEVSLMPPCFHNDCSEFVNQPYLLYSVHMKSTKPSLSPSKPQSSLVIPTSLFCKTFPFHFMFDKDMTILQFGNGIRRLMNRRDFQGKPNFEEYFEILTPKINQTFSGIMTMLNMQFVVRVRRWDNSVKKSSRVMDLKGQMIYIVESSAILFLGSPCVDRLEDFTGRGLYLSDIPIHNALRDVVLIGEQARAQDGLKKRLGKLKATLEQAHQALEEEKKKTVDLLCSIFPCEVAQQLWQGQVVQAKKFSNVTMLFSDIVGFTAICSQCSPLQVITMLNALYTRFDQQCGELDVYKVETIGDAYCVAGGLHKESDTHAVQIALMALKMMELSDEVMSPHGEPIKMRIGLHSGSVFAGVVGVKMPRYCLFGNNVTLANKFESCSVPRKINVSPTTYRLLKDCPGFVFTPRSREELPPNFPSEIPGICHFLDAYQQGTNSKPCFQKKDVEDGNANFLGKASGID
T2 sequence (Q02153 whole entry): as the sequence (Q02153 whole entry) above
T2 sequence (Q02108 whole entry): as the sequence (Q02108 whole entry) above

`Nc1nc(-c2cc(-c3ccon3)n(Cc3ccccc3F)n2)ncc1C1(O)CC1` [Compound I-119, I-(4-amino-2-(1-(2-fluorobenzyl)-5-(isoxazol-3-yl)-1H-pyrazol-3-yl)pyrimidin-5-yl)cyclopropanol]: the “sGC Enzyme (fold increase at 30 μM)” value in assay [1] is “B (B = 2 to <5 fold increase)”. For the same molecule, the “HEK WC Assay (fold increase at 30 μM in the absence of SNP)” value in assay [2] is “C (C = 2 to <5 fold increase)”. For the same molecule, in assay [3], the “HEK WC Assay (fold increase at 30 μM in the presence of 10 μM SNP)” value is recorded as “E (E = 10 to <20 fold increase)”, the Emax at 10 µM was greater than 120% and the Emax at 30 µM is greater than 120%. For the same molecule, the Emax in assay [3] (setting [5]) was 100 to 120%. The Emax in assay [3] (setting [6]) was in the range of 100 to 120%. For the same molecule, the EC50 in assay [3] (setting [7]) is less than 20 µM. The “sGC Enzyme (fold increase at 30 μM with SNP)” value in assay [4] is reported as “D (D = 10 to <30 fold increase)”. In the assay on Thoracic aortic rings (Table 10B), the “Percent Relaxation at 1 μM” value is reported as “C (C = 20 to <40%)”, the “Percent Relaxation at 3 μM” value is “E (E = 60 or <80%)” and the EC50 was less than 2000 nM. In the assay on Thoracic aortic rings (10 μM, Table 10B), the “Percent Relaxation at 10 μM” value is listed as “G (G = 100 to <120%)”. Further, in the assay on Thoracic aortic rings (Rattus norvegicus, Table 10A), the inhibition at 1 µM was in the range of 20 to 40%, the inhibition at 3 µM is 60 to 80% and the EC50 was less than 2000 nM. In addition, the inhibition at 10 µM in the assay on Thoracic aortic rings (Rattus norvegicus, 10 μM, Table 10A, read-out: Percent Relaxation at 10 μM) fell in the range of 100 to 120%.

Take `Nc1nc(-c2cc(-c3ccon3)n(Cc3ccccc3F)n2)ncc1NC(=O)c1ccccc1` [Compound I-126]: the “sGC Enzyme (fold increase at 30 μM)” value in assay [1] is on record as “D (D = 10 to <30 fold increase)”. Also, the “HEK WC Assay (fold increase at 30 μM in the absence of SNP)” value in assay [2] is given as “E (E = 10 to <20 fold increase)”. In addition, in assay [3], the “HEK WC Assay (fold increase at 30 μM in the presence of 10 μM SNP)” value is recorded as “F (F = 20 to <30 fold increase)”, the Emax at 10 µM is greater than 120% and the Emax at 30 µM lay in the range of 100 to 120%. Further, the Emax in assay [3] (setting [5]) is 100 to 120%. For the same molecule, the Emax in assay [3] (setting [6]) lay in the range of 100 to 120%. Moreover, the 50% effective concentration (EC50) in assay [3] (setting [7]) was less than 20 µM. For the same molecule, the “sGC Enzyme (fold increase at 30 μM with SNP)” value in assay [4] is on record as “D (D = 10 to <30 fold increase)”. Further, in the assay on Thoracic aortic rings (Table 10B), the “Percent Relaxation at 1 μM” value is recorded as “F (F = 80 to <100%)”, the “Percent Relaxation at 3 μM” value was “G (G = 100 to <120%)” and the EC50 was less than 2000 nM. In the assay with Thoracic aortic rings (Rattus norvegicus, Table 10A), the inhibition at 1 µM lay in the range of 80 to 100%, the inhibition at 3 µM lay within 100 to 120% and the 50% effective concentration (EC50) is less than 2000 nM.

Take `CC(C)(C)NC(=O)c1cnc(-c2cc(-c3ccon3)n(Cc3ccccc3F)n2)nc1N` [Compound I-136]: the “sGC Enzyme (fold increase at 30 μM)” value in assay [1] was “C (C = 5 to <10 fold increase)”. The “HEK WC Assay (fold increase at 30 μM in the absence of SNP)” value in assay [2] was “D (D = 5 to <10 fold increase)”. Besides, in assay [3], the “HEK WC Assay (fold increase at 30 μM in the presence of 10 μM SNP)” value is given as “E (E = 10 to <20 fold increase)”, the EC50 was less than 20 µM, the Emax at 10 µM lay in the range of 20 to 40% and the Emax at 30 µM lay in the range of 20 to 40%. The Emax in assay [3] (read-out: HEK WC Assay (% Emax at 1 μM with 10 uM SNP)) was in the range of 40 to 60%. The Emax in assay [3] (setting [5]) was 60 to 80%. Besides, the Emax in assay [3] (setting [6]) is 20 to 40%. In addition, in assay [4], the “sGC Enzyme (fold increase at 30 μM with SNP)” value is recorded as “D (D = 10 to <30 fold increase)”.

On to `COc1ccc(C2=Nc3nc(-c4cc(-c5ccon5)n(Cc5ccccc5F)n4)ncc3C(C)(C)O2)cc1` [Compound I-137], for which, in assay [1], the “sGC Enzyme (fold increase at 30 μM)” value is given as “B (B = 2 to <5 fold increase)”. The “HEK WC Assay (fold increase at 30 μM in the absence of SNP)” value in assay [2] is given as “C (C = 2 to <5 fold increase)”. In assay [3], the “HEK WC Assay (fold increase at 30 μM in the presence of 10 μM SNP)” value is on record as “D (D = 5 to <10 fold increase)”, the Emax at 10 µM is 100 to 120% and the Emax at 30 µM was in the range of 20 to 40%. Moreover, in assay [3] (setting [5]), the Emax was 40 to 60%. In addition, the Emax in assay [3] (setting [6]) lay within 40 to 60%. For the same molecule, the EC50 in assay [3] (setting [7]) lay within 40 to 60 µM. Besides, in assay [4], the “sGC Enzyme (fold increase at 30 μM with SNP)” value is recorded as “C (C = 5 to <10 fold increase)”.

In general, EC50 refers to the concentration at which the effect is half-maximal.
